Measurements as given in patent US4209511A, “Aminoglycoside antibiotics and process for production thereof” (Yamanouchi Pharmaceutical Co., Ltd., priority 1978, dated 1980).
≈ marks a conversion by molar mass, not a printed value. Where two headings read alike, the source gives them in different places.

What was measured:
[1] = test system: Staphylococcus aureus (PC-,SM-,TC-,KM-,Mac-resistant); test: Minimum inhibitory concentration, Staphylococcus aureus (PC-,SM-,TC-,KM-,Mac-resistant); type: cell-based; conditions: read-out: Minimum Inhibitory Concentration
[2] = test system: Escherichia coli NIHJ; test: Minimum inhibitory concentration, Escherichia coli NIHJ; type: cell-based; conditions: read-out: Minimum Inhibitory Concentration
[3] = test system: Shigella sonnei II 37148; test: Minimum inhibitory concentration, Shigella sonnei II 37148; type: cell-based; conditions: II37148
[4] = test system: Pseudomonas aeruginosa 99; test: Minimum inhibitory concentration, Pseudomonas aeruginosa 99; type: cell-based; conditions: Pseudomonas aeruginosa 99 (inactivates aminoglycosides with an acetyltransferase)
[5] = test system: Micrococcus flavus ATCC 10240; test: Minimum inhibitory concentration, Micrococcus flavus ATCC 10240; type: cell-based
[6] = test system: Escherichia coli K-12 R-5; test: Minimum inhibitory concentration, Escherichia coli K-12 R-5; type: cell-based; conditions: for MIC: K12R5, Escherichia coli K-12 R-5 (inactivates aminoglycosides with an acetyltransferase)
[7] = test system: Proteus vulgaris OXK US; test: Minimum inhibitory concentration, Proteus vulgaris OXK US; type: cell-based; conditions: read-out: Minimum Inhibitory Concentration
[8] = test system: Staphylococcus aureus Onuma (PC-,SM-,Mac-resistant); test: Minimum inhibitory concentration, Staphylococcus aureus Onuma (PC-,SM-,Mac-resistant); type: cell-based; conditions: read-out: Minimum Inhibitory Concentration
[9] = test system: Pseudomonas melanogenum IAM 1655; test: Minimum inhibitory concentration, Pseudomonas melanogenum IAM 1655; type: cell-based
[10] = test system: Sarcina lutea ATCC 9341; test: Minimum inhibitory concentration, Sarcina lutea ATCC 9341; type: cell-based; conditions: Micrococcus luteus
[11] = test system: Mycobacterium phlei; test: Minimum inhibitory concentration, Mycobacterium phlei; type: cell-based; conditions: Mycolicibacterium phlei, read-out: Minimum Inhibitory Concentration
[12] = test system: Pseudomonas aeruginosa GN-315; test: Minimum inhibitory concentration, Pseudomonas aeruginosa GN-315; type: cell-based
[13] = test system: Salmonella enteritidis 1891; test: Minimum inhibitory concentration, Salmonella enteritidis 1891; type: cell-based; conditions: Salmonella enterica, read-out: Minimum Inhibitory Concentration
[14] = test system: Pseudomonas aeruginosa ATCC 8689; test: Minimum inhibitory concentration, Pseudomonas aeruginosa ATCC 8689; type: cell-based
[15] = test system: Staphylococcus aureus Smith; test: Minimum inhibitory concentration, Staphylococcus aureus Smith; type: cell-based; conditions: read-out: Minimum Inhibitory Concentration
[16] = test system: Escherichia coli K-12 ML-1629; test: Minimum inhibitory concentration, Escherichia coli K-12 ML-1629; type: cell-based; conditions: K12ML1629; Escherichia coli K-12 ML-1629 (inactivates aminoglycosides with a phosphotransferase)
[17] = Solubility; type: physicochemical; conditions: free base (lyophilized product)
[18] = in vivo; conditions: mouse, iv
[19] = Staphylococcus aureus (PC-,SM-,TC-,KM-,Mac-resistant)
[20] = ATCC10240, Micrococcus flavus ATCC 10240, read-out: Minimum Inhibitory Concentration
[21] = Staphylococcus aureus Onuma (PC-,SM-,Mac-resistant)
[22] = Pseudomonas, IAM1655, read-out: Minimum Inhibitory Concentration
[23] = ATCC9341, read-out: Minimum Inhibitory Concentration
[24] = GN315, Pseudomonas aeruginosa GN-315, read-out: Minimum Inhibitory Concentration
[25] = Pseudomonas aeruginosa, ATCC8689, read-out: Minimum Inhibitory Concentration
[26] = IAM1655, Pseudomonas melanogenum IAM 1655, read-out: Minimum Inhibitory Concentration
[27] = ATCC9341, Sarcina lutea ATCC 9341, read-out: Minimum Inhibitory Concentration
[28] = ATCC8689, Pseudomonas aeruginosa ATCC 8689, read-out: Minimum Inhibitory Concentration
[29] = Pseudomonas aeruginosa, GN315, read-out: Minimum Inhibitory Concentration
[30] = Micrococcus flavus, ATCC10240, read-out: Minimum Inhibitory Concentration

Compound	MIC [1, 19]	MIC ([2]; Escherichia coli NIHJ)	MIC [3]	MIC [4]	MIC [5, 20]	MIC [6]	MIC ([7]; Proteus vulgaris)	MIC [8, 21]	MIC [9, 22]	MIC [10, 23]	MIC [11]	MIC [12, 24]	MIC ([13]; Salmonella enteritidis 1891)	MIC [14, 25]	MIC ([15]; Staphylococcus aureus Smith)	MIC [16]	Solubility in acetone [17]	Solubility in chloroform, benzene, ethyl acetate, butyl acetate, ether, n-hexane, etc. [17]	Solubility in ethanol [17]	Solubility in methanol [17]	other results
NC[C@@H]1CC[C@@H](N)[C@@H](O[C@H]2[C@H](O)[C@@H](O[C@H]3O[C@H](CO)[C@@H](O)[C@H](N)[C@H]3O)[C@H](N)C[C@@H]2N)O1 [DKB, Dibekacin, reference compound]	0.19 µg/mL (≈ 0.421 µM)	0.78 µg/mL (≈ 1.73 µM)	1.56 µg/mL (≈ 3.45 µM)	1.56 µg/mL (≈ 3.45 µM)	3.13 µg/mL (≈ 6.93 µM)	100 µg/mL (≈ 221 µM)	1.56 µg/mL (≈ 3.45 µM)	0.19 µg/mL (≈ 0.421 µM)	1.56 µg/mL (≈ 3.45 µM)	1.56 µg/mL (≈ 3.45 µM)	1.56 µg/mL (≈ 3.45 µM)	100 µg/mL (≈ 221 µM)	0.78 µg/mL (≈ 1.73 µM)	1.56 µg/mL (≈ 3.45 µM)	0.78 µg/mL (≈ 1.73 µM)	1.56 µg/mL (≈ 3.45 µM)	–	–	–	–	–
CNC1C(O)C(OC2C(N)CC(N)C(OC3OC(CN)CCC3O)C2O)OC(CO)C1(C)O (centres unmarked) [I-A2, 3"-N-Methyl-4"-C-methyl-3',4'-dideoxykanamycin A or its 4"-epimer]	6.25 µg/mL (≈ 13 µM)	1.56 µg/mL (≈ 3.25 µM)	3.13 µg/mL (≈ 6.51 µM)	12.5 µg/mL (≈ 26 µM)	0.78 µg/mL (≈ 1.62 µM)	> 100 µg/mL	3.13 µg/mL (≈ 6.51 µM)	–	–	–	–	> 100 µg/mL	1.56 µg/mL (≈ 3.25 µM)	–	–	3.13 µg/mL (≈ 6.51 µM)	sparingly soluble	insoluble	sparingly soluble	soluble	Solubility in water [17]: Very easily soluble; MIC ([8]; Staphylococcus aureus): 3.13 µg/mL (≈ 6.51 µM); MIC [9, 26]: 6.25 µg/mL (≈ 13 µM); MIC [10, 27]: 0.78 µg/mL (≈ 1.62 µM); MIC ([11]; Mycobacterium phlei): 1.56 µg/mL (≈ 3.25 µM); MIC [14, 28]: 6.25 µg/mL (≈ 13 µM); MIC ([15]; Staphylococcus aureus): 3.13 µg/mL (≈ 6.51 µM)
CNCC1CCC(N)C(OC2C(N)CC(N)C(OC3OC(CO)C(C)(O)C(NC)C3O)C2O)O1 (centres unmarked) [I-B1, 3"-N-Methyl-4"-C-methyl-3',4'-dideoxy-6'-N-methylkanamycin B or its 4"-epimer]	0.19 µg/mL (≈ 0.385 µM)	0.78 µg/mL (≈ 1.58 µM)	0.78 µg/mL (≈ 1.58 µM)	3.13 µg/mL (≈ 6.34 µM)	0.39 µg/mL (≈ 0.79 µM)	1.56 µg/mL (≈ 3.16 µM)	–	0.19 µg/mL (≈ 0.385 µM)	1.56 µg/mL (≈ 3.16 µM)	–	–	–	0.78 µg/mL (≈ 1.58 µM)	3.13 µg/mL (≈ 6.34 µM)	0.39 µg/mL (≈ 0.79 µM)	1.56 µg/mL (≈ 3.16 µM)	sparingly soluble	insoluble	soluble	soluble	Solubility in water [17]: Very easily soluble; inhibited the growth of resistant bacteria ([6]; Escherichia coli K-12 R-5, inactivates Kanamycin B by acetylating the 6'-amino group): inhibited the growth; MIC ([7]; Proteus vulgaris OXK US): 0.78 µg/mL (≈ 1.58 µM); MIC [10, 27]: 0.39 µg/mL (≈ 0.79 µM); MIC ([11]; Mycobacterium phlei): 0.78 µg/mL (≈ 1.58 µM); inhibited the growth of resistant bacteria ([12]; Pseudomonas aeruginosa GN 315, inactivates Kanamycin B by acetylating the 6'-amino group): inhibited the growth; MIC [12, 29]: 1.56 µg/mL (≈ 3.16 µM)
CNC1C(O)C(OC2C(N)CC(N)C(OC3OC(CN)CCC3N)C2O)OC(CO)C1(C)O (centres unmarked) [I-B2, 3"-N-Methyl-4"-C-methyl-3',4'-dideoxykanamycin B or its 4"-epimer]	0.19 µg/mL (≈ 0.396 µM)	0.78 µg/mL (≈ 1.63 µM)	0.78 µg/mL (≈ 1.63 µM)	6.25 µg/mL (≈ 13 µM)	0.39 µg/mL (≈ 0.813 µM)	25 µg/mL (≈ 52.1 µM)	–	0.19 µg/mL (≈ 0.396 µM)	1.56 µg/mL (≈ 3.25 µM)	–	–	50 µg/mL (≈ 104 µM)	0.39 µg/mL (≈ 0.813 µM)	–	0.39 µg/mL (≈ 0.813 µM)	1.56 µg/mL (≈ 3.25 µM)	sparingly soluble	insoluble	sparingly soluble	soluble	Solubility in water [17]: Very easily soluble; MIC ([7]; Proteus vulgaris OXK US): 0.78 µg/mL (≈ 1.63 µM); MTD [18]: 125 mg/kg; MIC [10, 27]: 0.39 µg/mL (≈ 0.813 µM); MIC ([11]; Mycobacterium phlei): 0.39 µg/mL (≈ 0.813 µM); MIC [14, 28]: 3.13 µg/mL (≈ 6.53 µM)
NCC1OC(OC2C(N)CC(N)C(OC3OC(CO)C(O)C(N)C3O)C2O)C(O)C(O)C1O (centres unmarked) [KM-A, Kanamycin A, reference compound]	–	–	3.13 µg/mL (≈ 6.46 µM)	100 µg/mL (≈ 206 µM)	–	> 100 µg/mL	6.25 µg/mL (≈ 12.9 µM)	–	–	3.13 µg/mL (≈ 6.46 µM)	1.56 µg/mL (≈ 3.22 µM)	–	–	> 100 µg/mL	–	> 100 µg/mL	–	–	–	–	MIC ([1]; Staphylococcus aureus): > 100 µg/mL; MIC ([2]; Escherichia coli): 3.13 µg/mL (≈ 6.46 µM); MIC [5, 30]: 6.25 µg/mL (≈ 12.9 µM); MIC ([8]; Staphylococcus aureus): 1.56 µg/mL (≈ 3.22 µM); MIC [9, 26]: > 100 µg/mL; MIC [12, 29]: > 100 µg/mL; MIC ([13]; ENTERITIDIS): 3.13 µg/mL (≈ 6.46 µM); MIC ([15]; Staphylococcus aureus): 3.13 µg/mL (≈ 6.46 µM)
NC[C@H]1O[C@H](O[C@H]2[C@H](O)[C@@H](O[C@H]3O[C@H](CO)[C@@H](O)[C@H](N)[C@H]3O)[C@H](N)C[C@@H]2N)[C@H](N)[C@@H](O)[C@@H]1O [KM-B, Kanamycin B, reference compound]	50 µg/mL (≈ 103 µM)	–	1.56 µg/mL (≈ 3.23 µM)	50 µg/mL (≈ 103 µM)	–	> 100 µg/mL	6.25 µg/mL (≈ 12.9 µM)	0.78 µg/mL (≈ 1.61 µM)	50 µg/mL (≈ 103 µM)	0.78 µg/mL (≈ 1.61 µM)	3.13 µg/mL (≈ 6.47 µM)	100 µg/mL (≈ 207 µM)	–	100 µg/mL (≈ 207 µM)	–	> 100 µg/mL	–	–	–	–	MIC ([2]; Escherichia coli): 1.56 µg/mL (≈ 3.23 µM); MIC [5, 30]: 1.56 µg/mL (≈ 3.23 µM); MIC ([13]; ENTERITIDIS): 1.56 µg/mL (≈ 3.23 µM)
